For orientation: logP means a log measure of how a compound divides between an organic and an aqueous phase.

Where two headings read alike, the source gives them in different places.

A short description of the data set: LogP of the perfume ingredients. Type of data set: physicochemical. The conditions noted are these: perfume ingredients of Table 1a.

`CC1C(C)(C)C2=C(C(=O)CCC2)C1(C)C` (stereo not shown) [Cashmeran®, 1,2,3,5,6,7-Hexahydro-1,2,3,3-pentamethyl-4h-inden-4-one] gave a logP of 4.31.
As for `CC(C)[C@@H]1CC[C@@H](C)CC1=O` [Menthone], the logP (read-out: LogP) was 2.87.
Same read-out and setting: in the case of `CC12CCC(CC1)C(C)(C)O2` [Eucalyptol] it was 3.13.
Consider `C=CC(C)CCCC(C)(C)OC(C)=O` (stereo not shown) [Dihydromyrcenyl acetate], for which the logP came out at 4.47.
As to `CC(C)=CCCC1=CCC(C)(C=O)CC1` (stereo not shown) [Precyclemone B, 1-Methyl-4-(4-methyl-3-pentenyl)cyclohex-3-ene-1-carboxaldehyde], where the note is “read-out: LogP”, the logP was 5.18.
Same read-out and setting: next, `C=CC(C)(CCC=C(C)C)OC(C)=O` (stereo not shown) [Linalyl acetate]: 4.39; `CC12CCC(CC1=O)C2(C)C` (stereo not shown) [Camphor]: 3.04.
`C=CC(C)CCCC(C)(C)O` (stereo not shown) [Dihydromyrcenol] showed a logP of 3.47.
Consider `CCCCCCCCCC(C)C=O` (stereo not shown) [2-Methylundecanal], for which the logP (read-out: LogP) turned out to be 4.67.
As to `CC(=O)C(C)=CC1C(C)=CCCC1(C)C` (stereo not shown) [Isoraldeine® 70, 3-Methyl-4-(2,6,6-trimethyl-2cyclohexen-1-yl)-3-buten-2-one], the logP (read-out: LogP) amounted to 4.84.

(Values after US9271905B2, “Process for preparing polyurea microcapsules” (Firmenich S.A., priority 2010, dated 2016).)
